This is an account of results in patent US10947210B2 (priority 2015, dated 2021).

For this assay, the target named is HCV RNA-dependent RNA polymerase (NS5B) (Hepatitis C virus genotype 1b (isolate BK) (HCV), UniProt P26663). Briefly: RNA-Dependent RNA HCV NS5B (polymerase) Assay and IC50 Determination. The class given is biochemical. To be noted: purified HCV NS5B polymerase, polyA:U16 substrate, 32P-UTP incorporation; read-out: IC50. On the procedure: RNA-Dependent RNA HCV NS5B (polymerase) Assay and IC50 Determination.
Chain of HCV RNA-dependent RNA polymerase (NS5B) (P26663 2420-3010): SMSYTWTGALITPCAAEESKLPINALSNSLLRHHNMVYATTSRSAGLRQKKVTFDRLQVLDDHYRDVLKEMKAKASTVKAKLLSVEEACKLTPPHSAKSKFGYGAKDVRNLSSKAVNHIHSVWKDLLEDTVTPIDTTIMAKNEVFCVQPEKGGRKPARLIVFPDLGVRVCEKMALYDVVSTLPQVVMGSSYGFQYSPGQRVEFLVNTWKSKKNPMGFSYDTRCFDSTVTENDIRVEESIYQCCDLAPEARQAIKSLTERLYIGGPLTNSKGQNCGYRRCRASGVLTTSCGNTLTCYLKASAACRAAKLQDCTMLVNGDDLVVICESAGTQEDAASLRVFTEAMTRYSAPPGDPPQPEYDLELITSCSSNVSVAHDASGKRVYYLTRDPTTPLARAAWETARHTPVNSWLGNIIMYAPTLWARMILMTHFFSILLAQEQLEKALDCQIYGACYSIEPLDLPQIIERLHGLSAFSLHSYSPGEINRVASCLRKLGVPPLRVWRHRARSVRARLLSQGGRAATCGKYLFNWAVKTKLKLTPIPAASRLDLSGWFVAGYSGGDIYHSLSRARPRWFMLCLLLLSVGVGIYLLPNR
The reaction mixtures consisted of 50 mM Hepes-KOH, pH 7.5, 5 mM MgCl2, 5 mM DTT, 2% glycerol, 0.01% Triton® X-100, 0.5 uM polyA:U16 substrate, purified HCV RNA-dependent RNA polymerase, 10 μM UTP, and ^32P-UTP (Perkin Elmer). The reaction mixtures incubated at 30° C. for 60 minutes, and then filtered through Zeta probe membrane (BioRad). The filter was washed with 5×SSC (75 mM sodium citrate, pH 7 and 750 mM NaCl), and the radiolabeled RNA products were quantitated by microbeta (Perkin Elmer). For IC50 determination, different concentrations of inhibitors were added to the polymerase reaction mixtures, and incubated at 37° C. for 60 minutes. IC50 values were determined using GraFit (Erithaus software).
Table 1 presents IC50 data obtained using the biochemical assay to test representative compounds. Data are presented as follows: “+++” means <0.1 μM; “++” means ≥0.1 μM but <1.0 μM; “+” means ≥1.0 μM.
As for `CCOC(=O)c1cccc(CCOCCOCCN(c2cc3oc(-c4ccc(F)cc4)c(C(=O)NC)c3cc2C2CC2)S(C)(=O)=O)c1` [Compound 11-5B, 3-{2-[2-(2-{[5-Cyclopropyl-2-(4-fluoro-phenyl)-3-methylcarbamoyl-benzofuran-6-yl]-methanesulfonyl-amino}-ethoxy)-ethoxy]-ethyl}-benzoic Acid Ethyl Ester], the half-maximal inhibitory concentration (IC50) was over 1000 nM.

Turning to `CNC(=O)c1c(-c2ccc(F)cc2)oc2cc(N(CCOCCOCCOc3cccc(C(=O)O)c3)S(C)(=O)=O)c(C3CC3)cc12` [Compound 14-7B, 3-{2-[2-(2-{[5-Cyclopropyl-2-(4-fluoro-phenyl)-3-methylcarbamoyl-benzofuran-6-yl]-methanesulfonyl-amino}-ethoxy)-ethoxy]-ethoxy}-benzoic Acid], the IC50 was in the range of 100 to 1000 nM.

With `CCOC(=O)/C(O)=C/C(=O)c1ccc(COCCOCCOCCOCCN(c2cc3oc(-c4ccc(F)cc4)c(C(=O)NC)c3cc2C2CC2)S(C)(=O)=O)cc1` [Compound 02-9H, 4-[4-(2-{2-[2-(2-{[5-Cyclopropyl-2-(4-fluoro-phenyl)-3-methylcarbamoyl-benzofuran-6-yl]-methanesulfonyl-amino}-ethoxy)-ethoxy]-ethoxy}-ethoxymethyl)-phenyl]-2-hydroxy-4-oxo-but-2-enoic Acid Ethyl Ester], the IC50 is over 1000 nM. As to `CNC(=O)c1c(-c2ccc(F)cc2)oc2cc(N(CCOCCOCCOCc3ccccc3C(=O)O)S(C)(=O)=O)c(C3CC3)cc12` [Compound 06-7D, 2-{2-[2-(2-{[5-Cyclopropyl-2-(4-fluoro-phenyl)-3-methylcarbamoyl-benzofuran-6-yl]-methanesulfonyl-amino}-ethoxy)-ethoxy]-ethoxymethyl}-benzoic Acid], the IC50 was in the range of 100 to 1000 nM. Turning to `CCOC(=O)/C(O)=C/C(=O)c1cccc(COCCOCCOCCOCCN(c2cc3oc(-c4ccc(F)cc4)c(C(=O)NC)c3cc2C2CC2)S(C)(=O)=O)c1` [Compound 02-9C, 4-[3-(2-{2-[2-(2-{[5-Cyclopropyl-2-(4-fluoro-phenyl)-3-methylcarbamoyl-benzofuran-6-yl]-methanesulfonyl-amino}-ethoxy)-ethoxy]-ethoxy}-ethoxymethyl)-phenyl]-2-hydroxy-4-oxo-but-2-enoic Acid Ethyl Ester], the half-maximal inhibitory concentration (IC50) was over 1000 nM.

Consider `CNC(=O)c1c(-c2ccc(F)cc2)oc2cc(N(CCOCCOCCOCCOCc3ccc(C(C)=O)cc3)S(C)(=O)=O)c(C3CC3)cc12` [Compound 02-8H, 6-{[2-(2-{2-[2-(4-Acetyl-benzyloxy)-ethoxy]-ethoxy}-ethoxy)-ethyl]-methanesulfonyl-amino}-5-cyclopropyl-2-(4-fluoro-phenyl)-benzofuran-3-carboxylic Acid Methylamide], for which the IC50 was over 1000 nM.

On to `CNC(=O)c1c(-c2ccc(F)cc2)oc2cc(N(CCOCCCCOc3cccc(C(=O)CC(=O)C(=O)O)c3)S(C)(=O)=O)c(C3CC3)cc12` [Compound 30-9, 4-{3-[4-(2-{[5-Cyclopropyl-2-(4-fluoro-phenyl)-3-methylcarbamoyl-benzofuran-6-yl]-methanesulfonyl-amino}-ethoxy)-butoxy]-phenyl}-2,4-dioxo-butyric acid], for which the IC50 is over 1000 nM. The figure for `CNC(=O)c1c(-c2ccc(F)cc2)oc2cc(N(CCOCCOCCOCc3cccc(C(=O)O)c3)S(C)(=O)=O)c(C3CC3)cc12` [Compound 06-7F, 3-{2-[2-(2-{[5-Cyclopropyl-2-(4-fluoro-phenyl)-3-methylcarbamoyl-benzofuran-6-yl]-methanesulfonyl-amino}-ethoxy)-ethoxy]-ethoxymethyl}-benzoic Acid] is under 100 nM; for `CNC(=O)c1c(-c2ccc(F)cc2)oc2cc(N(CCOCCOCCOCc3ccc(C(=O)O)cc3)S(C)(=O)=O)c(C3CC3)cc12` [Compound 06-7E, 4-{2-[2-(2-{[5-Cyclopropyl-2-(4-fluoro-phenyl)-3-methylcarbamoyl-benzofuran-6-yl]-methanesulfonyl-amino}-ethoxy)-ethoxy]-ethoxymethyl}-benzoic Acid] it is 100 to 1000 nM; for `CNC(=O)c1c(-c2ccc(F)cc2)oc2cc(N(CCOCCOCCOC(C(=O)NO)c3ccccc3)S(C)(=O)=O)c(C3CC3)cc12` (stereo not drawn) [Compound 25-6, 5-Cyclopropyl-2-(4-fluoro-phenyl)-6-[(2-{2-[2-(hydroxycarbamoyl-phenyl-methoxy)-ethoxy]-ethoxy}-ethyl)-methanesulfonyl-amino]-benzofuran-3-carboxylic Acid Methylamide] it is over 1000 nM. The figure for `CNC(=O)c1c(-c2ccc(F)cc2)oc2cc(N(CCOCCOCCOCc3ccccc3C(=O)OC)S(C)(=O)=O)c(C3CC3)cc12` [Compound 06-6D, 2-{2-[2-(2-{[5-Cyclopropyl-2-(4-fluoro-phenyl)-3-methylcarbamoyl-benzofuran-6-yl]-methanesulfonyl-amino}-ethoxy)-ethoxy]-ethoxymethyl}-benzoic acid methyl ester] is 100 to 1000 nM. In the case of `CNC(=O)c1c(-c2ccc(F)cc2)oc2cc(N(CCOCCOCCOCCOCCOCCOCc3ccc(C(=O)/C=C(\O)C(=O)O)cc3)S(C)(=O)=O)c(C3CC3)cc12` [Compound 02-10J, 4-(4-{2-[2-(2-{2-[2-(2-{[5-Cyclopropyl-2-(4-fluoro-phenyl)-3-methylcarbamoyl-benzofuran-6-yl]-methanesulfonyl-amino}-ethoxy)-ethoxy]-ethoxy}-ethoxy)-ethoxy]-ethoxymethyl}-phenyl)-2-hydroxy-4-oxo-but-2-enoic Acid] it was over 1000 nM; in that of `CNC(=O)c1c(-c2ccc(F)cc2)oc2cc(N(CCOCCOCCc3ccccc3C(=O)OC)S(C)(=O)=O)c(C3CC3)cc12` [Compound 11-5A, 2-{2-[2-(2-{[5-Cyclopropyl-2-(4-fluoro-phenyl)-3-methylcarbamoyl-benzofuran-6-yl]-methanesulfonyl-amino}-ethoxy)-ethoxy]-ethyl}-benzoic Acid Methyl Ester], 100 to 1000 nM; in that of `CNC(=O)c1c(-c2ccc(F)cc2)oc2cc(N(CCOCCSC(C)=O)S(C)(=O)=O)c(C3CC3)cc12` [Compound 21-5, Thioacetic Acid S-[2-(2-{[5-cyclopropyl-2-(4-fluoro-phenyl)-3-methylcarbamoyl-benzofuran-6-yl]-methanesulfonyl-amino}-ethoxy)-ethyl] Ester], under 100 nM.

Turning to `CNC(=O)c1c(-c2ccc(F)cc2)oc2cc(N(CCOCCOCc3ccc(C(=O)OC)cc3C)S(C)(=O)=O)c(C3CC3)cc12` [Compound 18-9B, 4-[2-(2-{[5-Cyclopropyl-2-(4-fluoro-phenyl)-3-methylcarbamoyl-benzofuran-6-yl]-methanesulfonyl-amino}-ethoxy)-ethoxymethyl]-3-methyl-benzoic Acid Methyl Ester], the IC50 is over 1000 nM.

Turning to `CNC(=O)c1c(-c2ccc(F)cc2)oc2cc(N(CCOCCOCc3ccc(C(=O)OC)c(C)c3)S(C)(=O)=O)c(C3CC3)cc12` [Compound 18-9A, 4-[2-(2-{[5-Cyclopropyl-2-(4-fluoro-phenyl)-3-methylcarbamoyl-benzofuran-6-yl]-methanesulfonyl-amino}-ethoxy)-ethoxymethyl]-2-methyl-benzoic Acid Methyl Ester], the IC50 was over 1000 nM. `CNC(=O)c1c(-c2ccc(F)cc2)oc2cc(N(CCOCCOCc3cccc(C(=O)OC)c3)S(C)(=O)=O)c(C3CC3)cc12` [Compound 06-6C, 3-[2-(2-{[5-Cyclopropyl-2-(4-fluoro-phenyl)-3-methylcarbamoyl-benzofuran-6-yl]-methanesulfonyl-amino}-ethoxy)-ethoxymethyl]-benzoic acid methyl ester]: the IC50 was over 1000 nM. The figure for `CNC(=O)c1c(-c2ccc(F)cc2)oc2cc(N(CCOCCCCCOCC(=O)O)S(C)(=O)=O)c(C3CC3)cc12` [Compound 27-9A, [5-(2-{[5-Cyclopropyl-2-(4-fluoro-phenyl)-3-methylcarbamoyl-benzofuran-6-yl]-methanesulfonyl-amino}-ethoxy)-pentyloxy]-acetic Acid] is 100 to 1000 nM; for `CNC(=O)c1c(-c2ccc(F)cc2)oc2cc(N(CCOCCOCCOC(C)(C)C(=O)NO)S(C)(=O)=O)c(C3CC3)cc12` [Compound 26-8B, 5-Cyclopropyl-2-(4-fluoro-phenyl)-6-[(2-{2-[2-(1-hydroxycarbamoyl-1-methyl-ethoxy)-ethoxy]-ethoxy}-ethyl)-methanesulfonyl-amino]-benzofuran-3-carboxylic Acid Methylamide] it is over 1000 nM. In the case of `CNC(=O)c1c(-c2ccc(F)cc2)oc2cc(N(CCOCCOCc3ccc(C(=O)O)cc3C)S(C)(=O)=O)c(C3CC3)cc12` [Compound 18-10B, 4-[2-(2-{[5-Cyclopropyl-2-(4-fluoro-phenyl)-3-methylcarbamoyl-benzofuran-6-yl]-methanesulfonyl-amino}-ethoxy)-ethoxymethyl]-3-methyl-benzoic Acid] it was under 100 nM.

With `CNC(=O)c1c(-c2ccc(F)cc2)oc2cc(N(CCOCCOCCOCCOCCOCCOCc3ccc(C(=O)O)cc3)S(C)(=O)=O)c(C3CC3)cc12` [Compound 30-13, 4-{2-[2-(2-{2-[2-(2-{[5-Cyclopropyl-2-(4-fluoro-phenyl)-3-methylcarbamoyl-benzofuran-6-yl]-methanesulfonyl-amino}-ethoxy)-ethoxy]-ethoxy}-ethoxy)-ethoxy]-ethoxymethyl}-benzoic acid], the half-inhibitory concentration (IC50) is over 1000 nM.

One may read the IC50 as the concentration that gives 50% inhibition.
